{"source": "paper PMC7039992", "about": "“The structural basis of fungal glucuronoyl esterase activity on natural substrates” (Nature Communications, 2020)", "molecules": {"B1": {"name": "dWT: enzymatically deglycosylated full-length WT CuGE (protein)", "chain": "QASAPQWGQCGGIGWTGPTACPSGWACQQLNAYYSQCLQGAAPAPARTTAAPPPPPATTAAPPPPTTSAPTGSSPVAGACGAIASTVPNYNNAKLPDPFTFANGTALRTKADWSCRRAEISALIQNYEAGTLPPKPPVVTASFSKSGNTGTLAITAGLSNSQTIKFSPTISYPSGTPPANGWPLIIAYEGGSIPIPAGVATLTYSNSDMAQQNSASSRGQGLFYQLYGSTHSASAMTAWVWGVSRIIDALEMTPTAQINTQRIGVTGCSRDGKGALMAGAFEERIALTIPQESGSGGDACWRLSKYEIDNGNQVQDAVEIVGENVWFSTNFNNYVQKLPTVPEDHHLLAAMVAPRAMISFENTDYLWLSPMSSFGCMTAAHTVWQGLGIADSHGFAQVGGHAHCAWPSSLTPQLNAFINRFLLDQSATTNVFTTNNQFGKVQWNAANWITWTTPTLT", "modifications": "N-glycosylation at N104 trimmed with Endo H; O-glycosylation in the linker region trimmed with alpha-1-2,3,6 mannosidase; left off: c-myc epitope, C-terminal, state not stated | His6, C-terminal, stat", "notes": "enzymatically deglycosylated full-length WT CuGE"}}, "key": {"[1]": {"target": "T1, dΔS270A CuGE (inactive truncated deglycosylated variant) (Cerrena unicolor, UniProt A0A0A7EQR3, S286A)", "T1 construct": "truncated CuGE (residues G79-T458) corresponding to the catalytic domain only; His6 (C); TEV protease cleavage site (C); made in house; host or cells: Pichia pastoris X-33", "assay": "Microscale thermophoresis (MST, LabelFree) binding of soluble ligands to dΔS270A", "procedure": "(§1) Binding affinities for the soluble ligands U^m4XX^-OH (O-UXXR, MEGAZYMES), MeGlcA (4-O-methyl-D-glucuronic acid, MM46686, Carbosynth, Crompton UK), and MeMeGlcA (4-O-methyl-D-glucopyranosyluronate, purchased from Institute of Chemistry, Slovak Academy of Sciences, Bratislava, Slovakia) were measured by MST. The protein stocks, dΔS207A and ΔWT, were adjusted to 200 nM with 100 mM sodium acetate buffer pH 5 supplemented with 0.1% Pluronic F-127. Ligand stocks (100 mM U^m4XX^-OH, 43 mM MeGlcA and 250 mM MeMeGlcA) were prepared in 100 mM sodium acetate buffer pH 5, and for each ligand a series of 16 1:1 dilutions was prepared using the same buffer. For the measurement, each ligand dilution was mixed with one volume of protein, which led to a final protein concentration of 100 nM and final ligand concentrations in the mM to nM range. After 10 min incubation followed by centrifugation at 10,000 × g for 10 min, the samples were loaded into Monolith NT.LabelFree zero-background capillaries (NanoTemper Technologies). The MST experiment was performed with a Monolith NT.LabelFree instrument (NanoTemper Technologies) at 25 °C using 30% LED power and medium MST power. […] Final ligand concentration ranges used in the analysis of the MST signal were: U^m4XX^-OH 25 mM to 1.53 μM, MeGlcA 10.8 mM to 656 nM and MeMeGlcA 15.6 mM to 3.81 μM. For each ligand-binding curve, data from at least three independently pipetted measurements were included in the analysis with the MO. Affinity Analysis software (version 2.3, NanoTemper Technologies) using the signal from an MST-on time of 5 s."}, "[2]": {"tested_on": "CuGE catalytic domain crystals", "assay": "Crystal soaking with ligands", "type": "binding, Cerrena unicolor", "settings": "concentrations up to 0.5 M", "procedure": "The deglycosylated CuGE variants dWT and dΔS207A were both screened for crystallization. However, all crystals obtained contain the catalytic domain only, as crystals formed in experiments with the full-length enzyme (dWT) turned out to be a proteolytic fragment lacking the CBM1 and linker region (Δ*dWT). […] Crystallization and ligand soak conditions are summarized in Supplementary Table 1. The vast majority of crystals formed at 4 °C and with high molecular weight polymers (SOKALAN CP7, PEG 10,000 or PEG 8000) as precipitants. Crystals were cryoprotected by brief soaks in either reservoir or ligand stock solutions supplemented with 26% glycerol and flash-frozen in liquid nitrogen. […] A refinement protocol using the maximum-likelihood target, real-space refinement, refinement of coordinates, individual isotropic temperature factors and translation-liberation-screw (TLS) refinement using TLS groups determined by the PHENIX software was applied. […]"}, "[3]": {"target": "T2, ΔWT CuGE (truncated, catalytic domain only) (Cerrena unicolor, UniProt A0A0A7EQR3)", "T2 construct": "truncated CuGE (residues G79-T458) corresponding to the catalytic domain only; His6 (C); TEV protease cleavage site (C); made in house; host or cells: Pichia pastoris X-33", "assay": "Microscale thermophoresis (MST, LabelFree) binding of soluble ligands to ΔWT", "settings": "for Fnorm Average: MST", "procedure": "as §1"}, "[4]": {"assay": "Stability measurements: apparent thermal unfolding temperature (Ti) from intrinsic fluorescence, Tycho NT.6", "type": "physicochemical, Cerrena unicolor", "settings": "20 mM sodium acetate buffer pH 5", "procedure": "In order to evaluate the stability of the different CuGE variants apparent unfolding temperatures (Ti) were monitored based on changes in intrinsic fluorescence using a Tycho NT.6 instrument (NanoTemper Technologies). The measurements were made in 20 mM sodium acetate buffer pH 5, protein concentrations in the range 0.07–0.3 mg mL^−1."}}, "note": "“And” between values parts separate entries of the source, which are not always exact repeats. Equal values may be shown once.", "data": [{"molecule": "COC(=O)[C@H]1OC(O)[C@H](O)[C@@H](O)[C@@H]1OC", "note": "(stereo partly drawn) [MeMeGlcA, methyl ester of 4-O-methyl-D-glucuronic acid]", "values": [{"measurement": "Kd", "setting": "[1]", "result": "> 10", "unit": "mM"}, {"measurement": "Fnorm Average", "setting": "[1]; MST, ligand Conc 3.8147e-6 M", "result": 893.87}, {"measurement": "Fnorm Average", "setting": "[1]; MST, ligand Conc 7.62939e-6 M", "result": 892.81}, {"measurement": "Fnorm Average", "setting": "[1]; MST, ligand Conc 1.52588e-5 M", "result": 893.60}, {"measurement": "Fnorm Average", "setting": "[1]; MST, ligand Conc 3.05176e-5 M", "result": 893.00}, {"measurement": "Fnorm Average", "setting": "[1]; MST, ligand Conc 6.10352e-5 M", "result": 891.24}, {"measurement": "Fnorm Average", "setting": "[1]; MST, ligand Conc 0.00012207 M", "result": 892.80}, {"measurement": "Fnorm Average", "setting": "[1]; MST, ligand Conc 0.000244141 M", "result": 892.27}, {"measurement": "Fnorm Average", "setting": "[1]; MST, ligand Conc 0.000488281 M", "result": 892.23}, {"measurement": "Fnorm Average", "setting": "[1]; MST, ligand Conc 0.000976562 M", "result": 892.05}, {"measurement": "Fnorm Average", "setting": "[1]; MST, ligand Conc 0.00195312 M", "result": 893.14}, {"measurement": "Fnorm Average", "setting": "[1]; MST, ligand Conc 0.00390625 M", "result": 894.69}, {"measurement": "Fnorm Average", "setting": "[1]; MST, ligand Conc 0.0078125 M", "result": 894.83}, {"measurement": "Fnorm Average", "setting": "[1]; MST, ligand Conc 0.015625 M", "result": 899.63}, {"measurement": "complex formation on crystal soak", "setting": "[2]", "result": "did not result in a complex"}]}, {"molecule": "CO[C@H]1[C@H](O)[C@@H](O)[C@@H](O[C@H]2[C@H](O[C@@H]3CO[C@@H](O[C@H](CO)[C@H](O)[C@@H](O)CO)[C@H](O)[C@H]3O)OC[C@@H](O)[C@@H]2O)O[C@@H]1C(=O)O", "note": "[U^m4XX^-OH, aldotetrauronic acid]", "values": [{"measurement": "Fnorm Average", "setting": "[1]; MST, ligand Conc 1.52588e-6 M", "result": 893.61}, {"measurement": "Fnorm Average", "setting": "[1]; MST, ligand Conc 3.05176e-6 M", "result": 893.69}, {"measurement": "Fnorm Average", "setting": "[1]; MST, ligand Conc 6.10352e-6 M", "result": 893.20}, {"measurement": "Fnorm Average", "setting": "[1]; MST, ligand Conc 1.2207e-5 M", "result": 894.05}, {"measurement": "Fnorm Average", "setting": "[1]; MST, ligand Conc 2.44141e-5 M", "result": 893.89}, {"measurement": "Fnorm Average", "setting": "[1]; MST, ligand Conc 4.88281e-5 M", "result": 895.55}, {"measurement": "Fnorm Average", "setting": "[1]; MST, ligand Conc 9.76563e-5 M", "result": 898.89}, {"measurement": "Fnorm Average", "setting": "[1]; MST, ligand Conc 0.000195313 M", "result": 901.02}, {"measurement": "Fnorm Average", "setting": "[1]; MST, ligand Conc 0.000390625 M", "result": 904.70}, {"measurement": "Fnorm Average", "setting": "[1]; MST, ligand Conc 0.00078125 M", "result": 908.26}, {"measurement": "Fnorm Average", "setting": "[1]; MST, ligand Conc 0.0015625 M", "result": 908.91}, {"measurement": "Fnorm Average", "setting": "[1]; MST, ligand Conc 0.003125 M", "result": 910.47}, {"measurement": "Fnorm Average", "setting": "[1]; MST, ligand Conc 0.00625 M", "result": 911.05}, {"measurement": "Fnorm Average", "setting": "[1]; MST, ligand Conc 0.0125 M", "result": 912.09}, {"measurement": "Fnorm Average", "setting": "[1]; MST, ligand Conc 0.025 M", "result": 909.72}, {"measurement": "Kd", "setting": "[3]", "result": 5, "unit": "mM"}, {"measurement": "Fnorm Average", "setting": "[3]; ligand Conc 1.52588e-6 M", "result": 893.29}, {"measurement": "Fnorm Average", "setting": "[3]; ligand Conc 3.05176e-6 M", "result": 893.55}, {"measurement": "Fnorm Average", "setting": "[3]; ligand Conc 6.10352e-6 M", "result": 893.63}, {"measurement": "Fnorm Average", "setting": "[3]; ligand Conc 1.2207e-5 M", "result": 892.18}, {"measurement": "Fnorm Average", "setting": "[3]; ligand Conc 2.44141e-5 M", "result": 892.73}, {"measurement": "Fnorm Average", "setting": "[3]; ligand Conc 4.88281e-5 M", "result": 894.37}, {"measurement": "Fnorm Average", "setting": "[3]; ligand Conc 9.76563e-5 M", "result": 893.73}, {"measurement": "Fnorm Average", "setting": "[3]; ligand Conc 0.000195313 M", "result": 893.94}, {"measurement": "Fnorm Average", "setting": "[3]; ligand Conc 0.000390625 M", "result": 894.62}, {"measurement": "Fnorm Average", "setting": "[3]; ligand Conc 0.00078125 M", "result": 893.24}, {"measurement": "Fnorm Average", "setting": "[3]; ligand Conc 0.0015625 M", "result": 896.88}, {"measurement": "Fnorm Average", "setting": "[3]; ligand Conc 0.003125 M", "result": 900.40}, {"measurement": "Fnorm Average", "setting": "[3]; ligand Conc 0.00625 M", "result": 905.36}, {"measurement": "Fnorm Average", "setting": "[3]; ligand Conc 0.0125 M", "result": 907.85}, {"measurement": "Fnorm Average", "setting": "[3]; ligand Conc 0.025 M", "result": 907.66}]}, {"molecule": "CO[C@@H]([C@H](O)[C@@H](O)C=O)[C@H](O)C(=O)O", "note": "[MeGlcA, 4-O-methyl-D-glucuronic acid]", "values": [{"measurement": "dissociation constant, times higher compared to dΔS270A:U^m4XX^-OH", "setting": "[1]; MST", "result": "~ 10 times"}, {"measurement": "Fnorm Average", "setting": "[1]; MST, ligand Conc 6.56128e-7 M", "result": 892.97}, {"measurement": "Fnorm Average", "setting": "[1]; MST, ligand Conc 1.31226e-6 M", "result": 893.37}, {"measurement": "Fnorm Average", "setting": "[1]; MST, ligand Conc 2.62451e-6 M", "result": 892.22}, {"measurement": "Fnorm Average", "setting": "[1]; MST, ligand Conc 5.24902e-6 M", "result": 893.19}, {"measurement": "Fnorm Average", "setting": "[1]; MST, ligand Conc 1.0498e-5 M", "result": 892.96}, {"measurement": "Fnorm Average", "setting": "[1]; MST, ligand Conc 2.09961e-5 M", "result": 892.61}, {"measurement": "Fnorm Average", "setting": "[1]; MST, ligand Conc 4.19922e-5 M", "result": 895.02}, {"measurement": "Fnorm Average", "setting": "[1]; MST, ligand Conc 8.39844e-5 M", "result": 893.94}, {"measurement": "Fnorm Average", "setting": "[1]; MST, ligand Conc 0.000167969 M", "result": 894.55}, {"measurement": "Fnorm Average", "setting": "[1]; MST, ligand Conc 0.000335937 M", "result": 893.65}, {"measurement": "Fnorm Average", "setting": "[1]; MST, ligand Conc 0.000671875 M", "result": 895.68}, {"measurement": "Fnorm Average", "setting": "[1]; MST, ligand Conc 0.00134375 M", "result": 895.81}, {"measurement": "Fnorm Average", "setting": "[1]; MST, ligand Conc 0.0026875 M", "result": 897.59}, {"measurement": "Fnorm Average", "setting": "[1]; MST, ligand Conc 0.005375 M", "result": 898.85}, {"measurement": "Fnorm Average", "setting": "[1]; MST, ligand Conc 0.01075 M", "result": 901.30}]}, {"molecule": "B1", "values": [{"measurement": "Ti, single measurements", "setting": "[4]; individual replicates", "result": "75.9 °C and 75.7 °C and 75.8 °C"}, {"measurement": "Ti, apparent thermal unfolding temperature (mean)", "setting": "[4]; protein 0.07–0.3 mg mL^−1, intrinsic fluorescence", "result": 75.8, "unit": "°C"}]}]}
